# pIC50: −log10 of the molar value. Counter-ions that a name gives are not always drawn.
# Target: MK-2 (Homo sapiens, UniProt P49137)
# Assay: Determination of MK-2 IC50 (phosphorylation of HSP-peptide, anion exchange resin capture assay)
# Type: biochemical
# Conditions: additional values are replicate IC50 experiments; mixture of stereoisomers implied unless otherwise noted; read-out: MK-2 Avg. IC50
# Sequence of MK-2 (P49137 whole entry, species assumed): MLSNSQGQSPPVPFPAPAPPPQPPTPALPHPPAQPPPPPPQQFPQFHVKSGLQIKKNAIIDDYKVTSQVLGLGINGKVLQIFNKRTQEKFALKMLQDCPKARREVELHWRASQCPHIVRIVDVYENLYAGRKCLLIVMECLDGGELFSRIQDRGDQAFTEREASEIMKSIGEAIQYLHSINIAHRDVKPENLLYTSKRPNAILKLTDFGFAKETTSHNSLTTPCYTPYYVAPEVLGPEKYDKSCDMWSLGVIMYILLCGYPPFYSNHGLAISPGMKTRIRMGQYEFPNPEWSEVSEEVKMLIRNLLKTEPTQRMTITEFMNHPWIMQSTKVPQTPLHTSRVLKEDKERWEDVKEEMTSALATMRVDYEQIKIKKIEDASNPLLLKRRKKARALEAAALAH
row,Compound,pIC50
1,"CN1C(=O)C(=O)c2c(n(C)c3ccccc23)C1=O [Example 263, 1H-Pyrido[3,4-b]indole-1,3,4(2H,9H)-trione, 2,9-dimethyl- or 2,9-dimethyl-1H-beta-carboline-1,3,4(2H,9H)-trione]",< 3.70
2,"COc1ccc2c3c([nH]c2c1)C(=O)NCC3 [Example 264, 7-methoxy-2,3,4,9-tetrahydro-1H-beta-carbolin-1-one]",< 3.70
3,"CC(C)(C)OC(=O)N1CCN(C(=O)c2cccc3[nH]c4c(c23)CCNC4=O)CC1 [Example 267, tert-butyl 4-[(1-oxo-2,3,4,9-tetrahydro-1H-beta-carbolin-5-yl)carbonyl]piperazine-1-carboxylate]",< 3.70
4,"O=C1NCCc2c1[nH]c1cccc(C(=O)N3CCNCC3)c21 [Example 268, 5-(piperazin-1-ylcarbonyl)-2,3,4,9-tetrahydro-1H-beta-carbolin-1-one hydrochloride]",< 3.70
5,"COC1=C(C#N)Cc2c([nH]c3ccc(OC)cc23)C(=O)N1 [Example 269, 3,7-dimethoxy-1-oxo-1,2,5,10-tetrahydroazepino[3,4-b]indole-4-carbonitrile]",< 3.70
6,"COC(=O)c1ccc2[nH]c3c(c2c1)CCNC3=O [Example 270, methyl 1-oxo-2,3,4,9-tetrahydro-1H-beta-carboline-6-carboxylate]",< 3.70
7,"O=C(O)c1ccc2[nH]c3c(c2c1)CCNC3=O [Example 271, 1-oxo-2,3,4,9-tetrahydro-1H-beta-carboline-6-carboxylic acid]",< 3.70

# System: U937 cells
# Assay: U937 Cell TNFα Release Assay
# Type: cell-based, human
# Conditions: Homo sapiens, U-937, 4 h, LPS-stimulated differentiated U937 cells, TNFα by ELISA; mixture of stereoisomers implied unless otherwise noted; read-out: TNF Release Assay Avg. IC50
row,Compound,pIC50
1,"O=C(O)C1c2[nH]c3ccc(O)cc3c2C2CCN1C2 (stereo not drawn) [Example 2, 7-hydroxy-3,4,5,10-tetrahydro-1H-2,5-methanoazepino[3,4-b]indole-1-carboxylic acid hydrochloride]",4.37
2,CSc1ccc2[nH]c3c(c2c1)C1CCN(C1)C3C(=O)O (stereo not drawn) [Example 50],4.82

# Same assay, conditions: Homo sapiens, U-937, 4 h, read-out: TNF Release Assay Avg. IC50, LPS-stimulated differentiated U937 cells, TNFα by ELISA; mixture of stereoisomers implied unless otherwise noted
row,Compound,pIC50
1,"CCC1CNC(C(=O)O)c2[nH]c3ccc(OC)cc3c21 (stereo not drawn) [Example 21, 4-ethyl-6-methoxy-2,3,4,9-tetrahydro-1H-beta-carboline-1-carboxylic acid hydrochloride]",< 4.00
2,"COc1ccc2[nH]c3c(c2c1)C(C)CNC3C(=O)O (stereo not drawn) [Example 22, 6-methoxy-4-methyl-2,3,4,9-tetrahydro-1H-beta-carboline-1-carboxylic acid]",4.04
3,"COc1ccc2[nH]c3c(c2c1)CC(CO)NC3C(=O)O (stereo not drawn) [Example 24, 3-(hydroxymethyl)-6-methoxy-2,3,4,9-tetrahydro-1H-beta-carboline-1-carboxylic acid]",< 4.00
4,"O=C(O)C1NCCc2c1[nH]c1ccc(O)cc21 (stereo not drawn) [Example 33, 6-hydroxy-2,3,4,9-tetrahydro-1H-beta-carboline-1-carboxylic acid hydrochloride]",< 4.00
5,"O=C(O)C1NCCc2c1[nH]c1ccc(OCc3ccccc3)cc21 (stereo not drawn) [Example 64, 6-(benzyloxy)-2,3,4,9-tetrahydro-1H-beta-carboline-1-carboxylic acid hydrochloride]",4.07
6,"COc1ccc2[nH]c3c(c2c1)CCN[C@@H]3C(=O)O [Example 67, (1S)-6-methoxy-2,3,4,9-tetrahydro-1H-beta-carboline-1-carboxylic acid]",< 4.00
7,"COc1ccc2[nH]c3c(c2c1)C(Cc1ccccc1)CNC3C(=O)O (stereo not drawn) [Example 71, 4-benzyl-6-methoxy-2,3,4,9-tetrahydro-1H-beta-carboline-1-carboxylic acid]",4.27
8,"NC(=O)c1ccc2[nH]c3c(c2c1)CCNC3C(=O)O (stereo not drawn) [Example 88, 6-(aminocarbonyl)-2,3,4,9-tetrahydro-1H-beta-carboline-1-carboxylic acid trifluoroacetate hydrate]",< 4.00
9,"O=C(O)C1NCCc2c1[nH]c1ccc(F)cc21 (stereo not drawn) [Example 94, 6-fluoro-2,3,4,9-tetrahydro-1H-beta-carboline-1-carboxylic acid trifluoroacetate]",< 4.00
10,"COc1cccc2[nH]c3c(c12)CCNC3C(=O)O (stereo not drawn) [Example 103, 5-methoxy-2,3,4,9-tetrahydro-1H-beta-carboline-1-carboxylic acid hydrochloride]",4.03
11,"COC(=O)C1NCCc2c1[nH]c1ccc(OC)cc21 (stereo not drawn) [Example 106, methyl 6-methoxy-2,3,4,9-tetrahydro-1H-beta-carboline-1-carboxylate hydrochloride]",4.58
12,"COC(=O)C1c2[nH]c3ccc(OC)cc3c2CCN1C (stereo not drawn) [Example 149, methyl 6-methoxy-2-methyl-2,3,4,9-tetrahydro-1H-beta-carboline-1-carboxylate]",5.08

# Same assay, conditions: Homo sapiens, U-937, LPS-stimulated differentiated U937 cells, TNFα by ELISA; mixture of stereoisomers implied unless otherwise noted; read-out: TNF Release Assay Avg. IC50
row,Compound,pIC50
1,"COc1ccc2[nH]c3c(c2c1)CC(CO)NC3=O (stereo not drawn) [Example 37, 3-(hydroxymethyl)-6-methoxy-2,3,4,9-tetrahydro-1H-beta-carbolin-1-one]",< 4.00
2,"COC(=O)C1c2[nH]c3ccc(OC)cc3c2C2CCN1C2 (stereo not drawn) [Example 58, methyl 7-methoxy-3,4,5,10-tetrahydro-1H-2,5-methanoazepino[3,4-b]indole-1-carboxylate trifluoroacetate]",4.79
3,"O=C(OCc1ccccc1)C1c2[nH]c3ccc(O)cc3c2C2CCN1C2 (stereo not drawn) [Example 63, benzyl 7-hydroxy-3,4,5,10-tetrahydro-1H-2,5-methanoazepino[3,4-b]indole-1-carboxylate hydrochloride]",4.44

# Same assay, conditions: Homo sapiens, U-937, read-out: TNF Release Assay Avg. IC50, LPS-stimulated differentiated U937 cells, TNFα by ELISA; mixture of stereoisomers implied unless otherwise noted
row,Compound,pIC50
1,"COc1ccc2[nH]c3c(c2c1)C1CCN(C1)C3C(=O)OCC(O)CO (stereo not drawn) [Example 20, 2,3-dihydroxypropyl 7-methoxy-3,4,5,10-tetrahydro-1H-2,5-methanoazepino[3,4-b]indole-1-carboxylate hydrochloride]",< 4.00
2,"COc1ccc2[nH]c3c(c2c1)C1CCN(C1)C3C(=O)OCCF (stereo not drawn) [Example 26, trifluoroacetate]",5.69
3,"C=CCOC(=O)C1c2[nH]c3ccc(OC)cc3c2C2CCN1C2 (stereo not drawn) [Example 28, allyl 7-methoxy-3,4,5,10-tetrahydro-1H-2,5-methanoazepino[3,4-b]indole-1-carboxylate hydrochloride]",4.84
4,"COc1ccc2[nH]c3c(c2c1)C1CCN(C1)C3C(=O)OCCSC (stereo not drawn) [Example 32, hydrochloride]",4.52
5,"COC(=O)C1c2[nH]c3ccc(O)cc3c2C2CCN1C2 (stereo not drawn) [Example 40, methyl 7-hydroxy-3,4,5,10-tetrahydro-1H-2,5-methanoazepino[3,4-b]indole-1-carboxylate hydrochloride]",4.59
6,"COc1ccc2[nH]c3c(c2c1)C1CCN(C1)C3C(=O)OC(C)C (stereo not drawn) [Example 59, isopropyl 7-methoxy-3,4,5,10-tetrahydro-1H-2,5-methanoazepino[3,4-b]indole-1-carboxylate hydrochloride]",< 4.00
7,"COc1ccc2[nH]c3c(c2c1)C1CCN(C1)C3C(=O)OCC(C)(C)C (stereo not drawn) [Example 84, hydrochloride]",4.39
8,"COC(=O)C1c2[nH]c3ccc(OCc4ccccc4)cc3c2C2CCN1C2 (stereo not drawn) [Example 91, methyl 7-(benzyloxy)-3,4,5,10-tetrahydro-1H-2,5-methanoazepino[3,4-b]indole-1-carboxylate compound with trifluoroacetic acid (1:1)]",4.62
9,"CCOC(=O)C1c2[nH]c3ccc(OC)cc3c2C2CCN1C2 (stereo not drawn) [Example 92, ethyl 7-methoxy-3,4,5,10-tetrahydro-1H-2,5-methanoazepino[3,4-b]indole-1-carboxylate trifluoroacetate]",5.25
10,"CCCCCCOC(=O)C1c2[nH]c3ccc(OC)cc3c2C2CCN1C2 (stereo not drawn) [Example 93, hydrochloride]",5.02
11,"COc1ccc2[nH]c3c(c2c1)C1CCN(C1)C3C(=O)OCC1CCCCC1 (stereo not drawn) [Example 99, cyclohexylmethyl 7-methoxy-3,4,5,10-tetrahydro-1H-2,5-methanoazepino[3,4-b]indinole-1-carboxylate hydrochloride]",5.01
12,"COc1ccc2[nH]c3c(c2c1)C1CCN(C1)C3C(=O)OC1CCCCC1 (stereo not drawn) [Example 105, hydrochloride]",< 4.00
13,"COc1ccc2[nH]c3c(c2c1)C1CCN(C1)C3C(=O)OC1C(C)(C)CCCC1(C)C (stereo not drawn) [Example 152, 2,2,6,6-tetramethylcyclohexyl 7-methoxy-3,4,5,10-tetrahydro-1H-2,5-methanoazepino[3,4-b]indole-1-carboxylate trifluoroacetate]",4.66

# Same assay, conditions: read-out: TNF Release Assay Avg. IC50; LPS-stimulated differentiated U937 cells, TNFα by ELISA; mixture of stereoisomers implied unless otherwise noted
row,Compound,pIC50
1,"COC(=O)C1c2[nH]c3ccc(O)cc3c2CCN1C (stereo not drawn) [Example 150, methyl 6-hydroxy-2-methyl-2,3,4,9-tetrahydro-1H-beta-carboline-1-carboxylate]",6.28

# Same assay, conditions: read-out: TNF Release Assay Avg. IC50; LPS-stimulated differentiated U937 cells, TNFα by ELISA; mixture of stereoisomers implied unless otherwise noted; hydrochloride
row,Compound,pIC50
1,"COCCOC(=O)C1c2[nH]c3ccc(OC)cc3c2C2CCN1C2 (stereo not drawn) [Example 35, hydrochloride]",4.03
2,"CCCOC(=O)C1c2[nH]c3ccc(OC)cc3c2C2CCN1C2 (stereo not drawn) [Example 90, propyl 7-methoxy-3,4,5,10-tetrahydro-1H-2,5-methanoazepino[3,4-b]indole-1-carboxylate hydrochloride]",4.32

# Same assay, conditions: read-out: TNF Release Assay Avg. IC50; LPS-stimulated differentiated U937 cells, TNFα by ELISA; mixture of stereoisomers implied unless otherwise noted; trifluoroacetate
row,Compound,pIC50
1,"COc1ccc2[nH]c3c(c2c1)C1CCN(C1)C3C(=O)OCc1ccccc1 (stereo not drawn) [Example 31, benzyl 7-methoxy-3,4,5,10-tetrahydro-1H-2,5-methanoazepino[3,4-b]indole-1-carboxylate trifluoroacetate]",4.34
2,"CCCOC(=O)C1c2[nH]c3ccc(OC)cc3c2C2CCN1C2 (stereo not drawn) [Example 61, propyl 7-methoxy-3,4,5,10-tetrahydro-1H-2,5-methanoazepino[3,4-b]indole-1-carboxylate trifluoroacetate]",6.06

# From patent US20050137220A1 (Pharmacia Corporation, priority 2003, published 2005)
